Assay results reported in patent US6596500B1, “Binding of retinoids to M6P/IGF-II receptor” (The General Hospital Corporation, priority 1998, dated 2003).
“Also recorded” adds a separate entry of the source.

Experiments:
P388D1 cells = experiment: RA effects on endocytosis, IGF-II internalization and acid phosphatase in receptor-negative cells; type: cell-based, mouse
From the text: The primary functions of the Man-6-P/IGF-II receptor are to mediate endocytosis of extracellular M6P-containing proteins (e.g. lysosomal enzymes) and IGF-II and to sort newly synthesized lysosomal enzymes. Therefore, an important question raised by the direct interaction of RA with M6P/IGF2R is whether RA influences these functions of the receptor. To answer this question, we examined the effect of RA on endocytosis of exogenous β-glucuronidase and ^125I-IGF-II and intracellular activity of acid phosphatase in cultured neonatal rat cardiac myocytes, which were known to express high levels of the M6P/IGF-II receptor (Nissley et al., 1993, Mol. Reprod. Dev. 35:408-413). […] This indicated an increased sorting of lysosomal enzymes) (FIGS. 4-6). […] These effects of RA were not altered in the presence of a protein synthesis inhibitor (0.5 mM cycloheximide) and were not observed in the receptor-negative P388D1 cells. This indicated a direct interaction of RA with the M6P/IGF2R protein.

HL-60R cells = experiment: Growth and apoptosis of HL-60R cells overexpressing M6P/IGF2R; type: cell-based, human; conditions: 1 μM RA; HL-60R cells transfected with M6P/IGF2R cDNA
Method: FIG. 9 is a graph showing the effect of RA treatment on growth (number of viable cells) of HL-60R cells overexpressing M6P/IGF2R protein and HL-60R controls. Open circles, vector control cells without RA treatment; closed circles, vector control cells with 1 μM RA treatment; open squares, overexpressing cells without RA treatment; closed squares overexpressing cells with 1 μM RA treatment.
We examined the M6P/IGF2R-mediated effects of RA in the absence of nuclear RA receptors, by using human cell line HL-60R, which lacks functional nuclear RA receptors. This cell line expresses low levels of M6P/IGF2R protein. We transfected HL-60R cells with a plasmid encoding human M6P/IGF2R, so they overexpressed M6P/IGF2R. Then we assessed their response to RA. […] Apoptosis was assayed using FITC-labeled annexin V staining and flow cytometry.

neonatal rat fibroblasts = experiment: Immunofluorescence of cathepsin B distribution in fibroblasts; type: cell-based; conditions: RA 1 μM for 3 h; neonatal rat fibroblasts
From the text: FIGS. 8A and 8B are photomicrographs showing effect of retinoic acid on the distribution of cathepsin B in neonatal rat fibroblasts. […] The enzyme was found mainly in the perinuclear area. […] Bar represents 4 μm.
Since biosynthetic transport of lysosomal enzymes from the TGN to endosomes/lysosomes is mainly mediated by the M6P/IGF2R (Sohar et al., 1998, Biochem. J. 330:903-908), an enhanced trafficking of the receptor should lead to an increased translocation of the M6P-containing lysosomal enzymes from the TGN to lysosomes. To test this, we examined the effect of RA on the intracellular distribution of cathepsin B, a lysosomal protease known to be transported in a M6P-dependent manner in fibroblasts (Hanewinkel et al., 1987, J. Diol. Chem. 262:12351-12355). […] The distribution was similar to that of M6P/IGF2R (shift from perinuclear area to cytoplasmic vesicles throughout the cytoplasm).
Intracellular Trafficking Materials Retinoic acid was obtained from Sigma Chem. Co. (St. Louis, Mo.). The synthetic retinoids used (AGN193109, TTNPB) were produced by Allergan Inc. (Irvine, Calif.). Stably-transfected P388D1 cells re-expressing the M6P/IGF2R were provided by Dr. William S. Sly (St. Louis University). The rabbit polyclonal antibody against the rat M6P/IGF-II receptor was a gift from Dr. R.G. MacDonald (University of Nebraska). […]

M6P/IGF2R = M6P/IGF2R (Rattus norvegicus, UniProt G3V824); experiment: β-glucuronidase binding to saponin-permeabilized cardiac myocytes; type: cell-based; design: endogenous in cells; host or cells: primary neonatal rat cardiac fibroblasts; conditions: RA 1 μM; saponin-permeabilized neonatal rat cardiac myocytes
M6P/IGF2R, sequence (G3V824 36-2481): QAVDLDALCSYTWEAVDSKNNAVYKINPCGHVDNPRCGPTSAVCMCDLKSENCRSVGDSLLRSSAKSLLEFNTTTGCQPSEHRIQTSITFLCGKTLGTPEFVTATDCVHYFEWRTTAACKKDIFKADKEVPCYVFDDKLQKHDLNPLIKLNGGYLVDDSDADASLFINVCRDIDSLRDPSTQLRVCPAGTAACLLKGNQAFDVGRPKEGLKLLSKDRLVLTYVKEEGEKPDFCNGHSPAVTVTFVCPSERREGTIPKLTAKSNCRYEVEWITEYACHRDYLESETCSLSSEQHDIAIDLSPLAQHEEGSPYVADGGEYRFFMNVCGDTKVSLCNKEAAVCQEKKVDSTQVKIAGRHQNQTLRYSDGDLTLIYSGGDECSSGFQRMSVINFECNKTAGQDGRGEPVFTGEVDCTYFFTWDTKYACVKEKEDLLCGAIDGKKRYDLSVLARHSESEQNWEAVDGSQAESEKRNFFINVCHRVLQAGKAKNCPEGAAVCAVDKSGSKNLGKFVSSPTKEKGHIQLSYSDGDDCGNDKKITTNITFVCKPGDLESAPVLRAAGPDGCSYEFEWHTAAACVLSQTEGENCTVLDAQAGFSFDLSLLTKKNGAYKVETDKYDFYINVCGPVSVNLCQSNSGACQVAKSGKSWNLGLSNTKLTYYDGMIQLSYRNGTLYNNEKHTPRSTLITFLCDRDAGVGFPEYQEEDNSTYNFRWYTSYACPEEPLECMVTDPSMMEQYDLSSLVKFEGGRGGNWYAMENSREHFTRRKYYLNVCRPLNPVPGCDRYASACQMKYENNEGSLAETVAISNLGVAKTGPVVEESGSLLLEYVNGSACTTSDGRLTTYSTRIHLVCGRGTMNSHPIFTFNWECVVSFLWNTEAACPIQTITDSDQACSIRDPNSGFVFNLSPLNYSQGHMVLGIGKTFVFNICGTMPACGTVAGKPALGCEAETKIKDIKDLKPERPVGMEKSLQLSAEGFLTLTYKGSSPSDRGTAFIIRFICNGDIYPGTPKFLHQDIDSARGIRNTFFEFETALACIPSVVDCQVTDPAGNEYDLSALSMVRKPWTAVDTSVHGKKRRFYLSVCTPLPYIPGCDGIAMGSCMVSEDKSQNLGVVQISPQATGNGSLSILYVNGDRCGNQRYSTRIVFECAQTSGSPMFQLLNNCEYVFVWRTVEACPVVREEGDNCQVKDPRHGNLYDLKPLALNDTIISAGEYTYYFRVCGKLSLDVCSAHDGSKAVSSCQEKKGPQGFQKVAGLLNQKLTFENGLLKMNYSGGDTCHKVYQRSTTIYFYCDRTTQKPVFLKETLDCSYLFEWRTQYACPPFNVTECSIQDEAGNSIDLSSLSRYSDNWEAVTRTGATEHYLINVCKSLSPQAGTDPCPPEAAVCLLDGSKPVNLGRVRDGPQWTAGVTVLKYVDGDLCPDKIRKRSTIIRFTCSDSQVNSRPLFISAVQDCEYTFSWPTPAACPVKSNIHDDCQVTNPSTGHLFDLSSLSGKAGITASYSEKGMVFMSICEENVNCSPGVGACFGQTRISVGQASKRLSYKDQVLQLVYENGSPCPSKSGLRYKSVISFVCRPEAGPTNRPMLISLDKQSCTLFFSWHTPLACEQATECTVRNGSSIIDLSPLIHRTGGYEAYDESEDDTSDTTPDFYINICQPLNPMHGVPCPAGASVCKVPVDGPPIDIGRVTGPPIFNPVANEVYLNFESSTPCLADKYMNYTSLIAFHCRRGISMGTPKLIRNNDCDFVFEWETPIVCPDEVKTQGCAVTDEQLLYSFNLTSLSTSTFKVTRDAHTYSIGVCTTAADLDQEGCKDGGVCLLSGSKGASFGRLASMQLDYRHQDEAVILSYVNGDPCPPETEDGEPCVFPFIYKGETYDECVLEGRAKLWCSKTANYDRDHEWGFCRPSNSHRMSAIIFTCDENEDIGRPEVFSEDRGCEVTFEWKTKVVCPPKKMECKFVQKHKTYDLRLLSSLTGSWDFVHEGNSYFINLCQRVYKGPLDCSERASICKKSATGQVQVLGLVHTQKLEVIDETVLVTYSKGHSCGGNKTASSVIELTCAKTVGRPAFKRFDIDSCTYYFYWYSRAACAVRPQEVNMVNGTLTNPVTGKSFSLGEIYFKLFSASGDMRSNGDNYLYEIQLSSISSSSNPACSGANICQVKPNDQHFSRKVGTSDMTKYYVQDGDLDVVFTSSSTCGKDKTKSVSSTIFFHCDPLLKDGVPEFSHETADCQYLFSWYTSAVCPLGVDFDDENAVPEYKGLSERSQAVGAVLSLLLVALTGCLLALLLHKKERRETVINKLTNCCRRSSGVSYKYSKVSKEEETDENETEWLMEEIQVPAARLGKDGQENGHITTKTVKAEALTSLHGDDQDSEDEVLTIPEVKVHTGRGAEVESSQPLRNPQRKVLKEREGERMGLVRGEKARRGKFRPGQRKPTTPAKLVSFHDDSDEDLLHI
Method: FIG. 3 is a histogram summarizing data on the effect of RA (1 μM) on β-glucuronidase binding to permeabilized neonatal rat cardiac myocytes (n=3).
To determine how these ligands interact in binding to the same receptor, we examined the effects of M6P and IGF-II on the [^3H]RA-affinity photolabeling of the M6P/IGF-II receptor. […] The [^3H]RA labeling of M6P/IGF-II receptor was 2-fold greater in the presence of 5 mM M6P than in the absence of M6P, as measured by NIH Image, n=3. Similar results were obtained by measurement of the binding of [^3H]RA to the partially purified receptors (FIG. 2). The increased binding of RA to the receptor in the presence of M6P appeared to be the result of increased binding affinity. […]
β-glucuronidase Binding and Endocytosis For binding assays, cells were permeabilized with saponin, incubated with β-glucuronidase (20,000 units/ml) with or without 1 μM RA for 3 h on ice, washed, solubilized and assayed for β-glucuronidase essentially as described by Miniti et al., 1992, J. Biol. Chem. 267:9000-9004. Specific enzyme binding was calculated by subtracting nonspecific binding (in the presence of 10 mM M6P) from total binding.

- M6P-inhibitable binding of β-glucuronidase to cells, presence vs absence of RA (M6P/IGF2R): 2-3 times
SMILES: CC1=C(/C=C/C(C)=C/C=C/C(C)=C/C(=O)O)C(C)(C)CCC1 [RA, all-trans-retinoic acid]
- Effects of RA on endocytosis, IGF-II internalization and acid phosphatase in receptor-negative cells (P388D1 cells): not observed
- Apoptosis (FITC-annexin V staining, flow cytometry) (HL-60R cells): significant increase in apoptosis
- Growth rate (HL-60R cells): remarkable reduction in growth rate
- Intracellular distribution of cathepsin B (neonatal rat fibroblasts): translocated from the perinuclear area to the cytoplasmic vesicles; also recorded: remarkable change in cathepsin B distribution
